The results in this text go back to patent US8354522B2, “Immunostimulatory oligoribonucleotides” (Coley Pharmaceutical GmbH, priority 2005, dated 2013).

Where two headings read alike, the source gives them in different places.

In this series the test system is Human PBMC. Briefly: Cytokine production upon human PBMC stimulation (ORN complexed to DOTAP, 16 h, ELISA). More on the design: key to IFN-alpha / TNF-alpha: +: cytokine production; −: no cytokine production. Particulars: for IFN-alpha / TNF-alpha: human PBMC stimulated for 16 h, supernatant ELISA; for EC50 / IFN-alpha max activity / TNF-alpha max activity: ORN complexed to DOTAP, 16 h; for EC50: full titration 2 μM to 0.9 nM; for IFN-alpha max activity / TNF-alpha max activity: mean max activity at 0.6 μM, 3-6 blood donors. It is filed as cell-based. The protocol: Human peripheral blood mononuclear cells (PBMCs) were isolated from healthy donors, plated, and stimulated in vitro with various test and control immunostimulatory agents for 16 hours. After 16 hours, the supernatants were collected and then analyzed by ELISA assay. N-U-R1-R2,-Containing Oligoribonucleotides were tested complexed to DOTAP and with full titration curves (7 concentrations), starting from 2 μM ORN complexed to 25 μg/ml DOTAP and with 1/3 dilution steps. Also included were certain negative controls, including medium alone and DOTAP (25 μg/ml culture well; “Liposomes”) alone. The control immunostimulatory agents included the imidazoquinoline R-848 (2 μM with 1/3 dilution steps and 7 concentrations) the reported ligand for TLR7, ORN having TLR8 motifs such as AU and AUU sequences (SEQ ID NO:13-SEQ ID NO:15) ORN having TLR7/8 motifs such as CU, GU and GUU sequences (SEQ ID NO:19-SEQ ID NO:23).
Human PBMC were stimulated with ORN complexed to DOTAP. After 16 hours supernatants were harvested and TNF-alpha and IFN-alpha levels were measured. Mean/Max activities at 0.6 μM of 3-6 blood donors and two individual experiments were determined. […] TLR8 and TLR7/8 ORN are divided by a red line.
Human PBMC were stimulated with ORN complexed to DOTAP. After 16 hours supernatants were harvested and IFN-alpha levels were measured. Mean/Max activities at 0.6 μM and EC50 of full titration curves (range: 2 μM to 0.9 nM) of 3-6 blood donors and two individual experiments were determined. […] Low EC50/high Max activity represents TLR7/8 ORN (FIG. 5a) whereas high EC50 and low Max activity represents TLR8 ORN (FIG. 5b).
The ORN sequences listed in Table 1 were tested for IFN-alpha and TNF-alpha production upon human PBMC stimulation. Human PBMC were stimulated for 16 h with the indicated ORN, and supernatants were harvested and cytokine production measured by ELISA. Table 2 summarizes the min/max activity and EC50 of ORN for IFN-alpha and TNF-alpha production.
In general terms: In an ELISA, binding on a coated surface is turned into a signal by an enzyme label.

Setting [1] is: human PBMC, read-out: IFN-alpha EC50.
Setting [2] is: human PBMC, read-out: TNF-alpha EC50.

For the substance “U*A*U*A*U*A*U (UAUAUAU; phosphorothioate linkages, chemistry not fully specified) [SEQ ID NO: 33]”, the IFN-alpha result is recorded as “−” and the TNF-alpha entry is given as “+”.

“C*C*G*A*G*C*C*G*A*U*U*U*A*A*C*C (CCGAGCCGAUUUAACC; listed as RNA, chemistry not fully specified) [SEQ ID NO: 73]”: the EC50 under setting [1] turned out to be 55 nM. Under setting [2], the EC50 worked out at 163 nM. Under “human PBMC”, the IFN-alpha max activity is 1395 pg/mL and the TNF-alpha max activity amounted to 31619 pg/mL.

Take “C*C*G*A*G*C*C*G*C*A*U*C*C*C*C*C (CCGAGCCGCAUCCCCC; listed as RNA, chemistry not fully specified) [SEQ ID NO: 46]”: the EC50 under setting [1] was above 2000 nM and the EC50 under setting [2] was found to be 765 nM. Besides, where the note is “human PBMC”, the IFN-alpha max activity came out at 74.76 pg/mL. Besides, the TNF-alpha max activity (human PBMC) was found to be 7096 pg/mL.

For “C*C*G*A*G*C*C*G*C*A*U*U*A*C*C*C (CCGAGCCGCAUUACCC; listed as RNA, chemistry not fully specified) [SEQ ID NO: 48]”, the EC50 under setting [1] came out at 750 nM. Further, the EC50 under setting [2] stood at 801 nM. For the setting “human PBMC”, the IFN-alpha max activity turned out to be 543.4 pg/mL and the TNF-alpha max activity came to 9988 pg/mL.

Regarding “C*C*G*A*G*C*C*G*C*U*U*A*C*C*C*C (CCGAGCCGCUUACCCC; listed as RNA, chemistry not fully specified) [SEQ ID NO: 53]”, under setting [1], the EC50 stood at 244 nM. For the same substance, the EC50 under setting [2] is 952 nM. In addition, under “human PBMC”, the IFN-alpha max activity was 3091 pg/mL and the TNF-alpha max activity turned out to be 14623 pg/mL.

Consider “U*U*A*G*G*C*A*C (UUAGGCAC; phosphorothioate linkages, chemistry not fully specified) [SEQ ID NO: 2]”, for which the IFN-alpha result is “−” and the TNF-alpha entry is recorded as “+”.

In the case of “C*C*G*A*G*C*C*G*A*A*U*U*C*A*C*C (CCGAGCCGAAUUCACC; listed as RNA, chemistry not fully specified) [SEQ ID NO: 80]”, the 50% effective concentration (EC50) under setting [1] amounted to 33 nM. For the same substance, the EC50 under setting [2] is 217 nM. Besides, under “human PBMC”, the IFN-alpha max activity is 1225 pg/mL and the TNF-alpha max activity turned out to be 28108 pg/mL.

In the case of “C*C*G*A*G*C*C*G*A*A*G*G*U*C*C*C (CCGAGCCGAAGGUCCC; listed as RNA, chemistry not fully specified) [SEQ ID NO: 86]”, under setting [1], the EC50 amounted to 767 nM. The EC50 under setting [2] is 850 nM. For the setting “human PBMC”, this substance came in with an IFN-alpha max activity of 856.5 pg/mL and a TNF-alpha max activity of 4178 pg/mL.

As to “C*U*A*C*U*A*C*U*A*C*U*A*C*U*A*C*U*A*C*U (CUACUACUACUACUACUACU; listed as RNA, chemistry not fully specified) [SEQ ID NO: 24]”, the IFN-alpha entry is reported as “−” and the TNF-alpha entry is recorded as “+”. For the setting “human PBMC”, the “IFN-alpha production upon PBMC stimulation (in words)” value is “no IFN-alpha production” and the “TNF-alpha production upon PBMC stimulation (in words)” value was “TNF-alpha inducing”.

As to “C*C*G*A*G*C*C*G*A*U*U*G*A*A*C*C (CCGAGCCGAUUGAACC; listed as RNA, chemistry not fully specified) [SEQ ID NO: 76]”, the EC50 amounted to 1540 nM under setting [1] and 109 nM under setting [2]. The same substance registered an IFN-alpha max activity (human PBMC) of 448.6 pg/mL. Also, the TNF-alpha max activity (human PBMC) amounted to 26371 pg/mL.

Consider “G*U*G*U*G*U*G*U*G*U*G*U*G*U*G*U*G*U*G*U (GUGUGUGUGUGUGUGUGUGU; listed as RNA, chemistry not fully specified) [SEQ ID NO: 20]”, for which the IFN-alpha result is “+” and the TNF-alpha entry is listed as “+”.

Turning to “C*C*G*A*G*C*C*G*A*U*U*C*T*A*C*C (CCGAGCCGAUUCNACC; Oligoribonucleotide, chemistry of T and the '*' linkage is not given here, further chemistry not given here) [SEQ ID NO: 75]”, the EC50 under setting [1] amounted to 1300 nM. Moreover, under setting [2], the EC50 came out at 129 nM. Besides, for the setting “human PBMC”, the IFN-alpha max activity came out at 929.9 pg/mL and the TNF-alpha max activity is 27576 pg/mL.

Regarding “C*C*G*A*G*C*C*G*C*U*A*U*C*C*C*C (CCGAGCCGCUAUCCCC; listed as RNA, chemistry not fully specified) [SEQ ID NO: 55]”, the EC50 under setting [1] is above 2000 nM and the EC50 under setting [2] came to 337 nM. The IFN-alpha max activity (human PBMC) amounted to 224.4 pg/mL. This substance also came in with a TNF-alpha max activity (human PBMC) of 15154 pg/mL.

“dN*dN*dN*dN*dN*N*A*U*A*U*N*N*dN*dN*dN*dN*dN*dN [SEQ ID NO: 7]”: the IFN-alpha result was “−” and the TNF-alpha result is “+”.

Take “C*C*G*A*G*C*C*G*A*A*U*A*C*C*C*C (CCGAGCCGAAUACCCC; listed as RNA, chemistry not fully specified) [SEQ ID NO: 42]”: the 50% effective concentration (EC50) under setting [1] was at least 1500 nM. For the same substance, the EC50 under setting [2] is 395 nM. In addition, for the setting “human PBMC”, the IFN-alpha max activity was 392.4 pg/mL and the TNF-alpha max activity stood at 17418 pg/mL.

Consider “A*A*A*U*A*A*A*U*A*A*A*U*A*A*A*U*A*A*A*U (AAAUAAAUAAAUAAAUAAAU; listed as RNA, chemistry not fully specified) [SEQ ID NO: 17]”, for which the IFN-alpha result was “−” and the TNF-alpha result is on record as “+”.

Turning to “G*U*A*G*G*C*A*C (GUAGGCAC; phosphorothioate linkages, chemistry not fully specified) [SEQ ID NO: 1]”, the IFN-alpha entry is “−” and the TNF-alpha result is given as “+”.

As to “C*C*G*A*G*C*C*A*U*A*U*A*U*A*U*C (CCGAGCCAUAUAUAUC; listed as RNA, chemistry not fully specified) [SEQ ID NO: 39]”, the EC50 under setting [1] is at least 1500 nM. For the same substance, the EC50 under setting [2] was determined as 324 nM. Where the note is “human PBMC”, this substance yielded an IFN-alpha max activity of 356.7 pg/mL and a TNF-alpha max activity of 19253 pg/mL.

Turning to “C*C*G*A*G*C*C*A*U*A*U*A*U*C*C*C (CCGAGCCAUAUAUCCC; listed as RNA, chemistry not fully specified) [SEQ ID NO: 38]”, the EC50 is, setting by setting: under setting [1], at least 1500 nM; under setting [2], 890 nM. Moreover, for the setting “human PBMC”, the IFN-alpha max activity worked out at 245 pg/mL. This substance also came in with a TNF-alpha max activity (human PBMC) of 14064 pg/mL.

“G*U*A*G*U*A*G (GUAGUAG; phosphorothioate linkages, chemistry not fully specified) [SEQ ID NO: 34]”: the IFN-alpha result is on record as “+” and the TNF-alpha entry was “+”.

As for “C*C*G*A*G*C*C*G*A*A*U*C*C*C*C*C (CCGAGCCGAAUCCCCC; listed as RNA, chemistry not fully specified) [SEQ ID NO: 44]”, the EC50 under setting [1] is at least 1500 nM. Under setting [2], the EC50 was determined as 321 nM. Besides, under “human PBMC”, the IFN-alpha max activity was determined as 305.6 pg/mL and the TNF-alpha max activity came out at 19473 pg/mL.

In the case of “U*U*I*U*U*I*U*U*I*U*U*I*U*U*I*U*U*I*U*U (UUNUUNUUNUUNUUNUUNUU; inosine, phosphorothioate linkages, chemistry not fully specified) [SEQ ID NO: 28]”, the IFN-alpha result is on record as “+” and the TNF-alpha entry is reported as “+”.

As for “A*A*U*A*A*U*A*A*U*A*A*U*A*A*U*A*A*U*A*A (AAUAAUAAUAAUAAUAAUAA; listed as RNA, chemistry not fully specified) [SEQ ID NO: 16]”, the IFN-alpha result is recorded as “−” and the TNF-alpha result is “+”.

As a reminder, the EC50 is the concentration at which the effect is half-maximal.
